OC[C@@H](O)C(O)[C@@H](O)CO (some centres undefined)
solubility (mole fraction)
Details	293.15 K	298.15 K	303.15 K	308.15 K	313.15 K	318.15 K	323.15 K
in acetone	0.000202	0.00024	0.000302	0.000399	0.000542	0.000739	0.001
in ethanol	0.00172	0.0024	0.00309	0.00396	0.00521	0.00703	0.0096

From BigSolDB 2.1
